Reference: patent US8614219B2, “Substituted pyrimidin-4-one derivatives” (Sanofi-aventis, priority 2008, dated 2013)

What follows are compounds tested against GSK3β (Homo sapiens, UniProt P49841) (assay: Inhibitory activity against GSK3β (33P-ATP phosphorylation of prephosphorylated GS1 peptide, four protocols)). Details: protocol 4: commercial GSK3beta (Millipore), 7.5 μM GS1 peptide, 10 μM ATP, 50 mM Hepes pH 7.2, 90 minutes at room temperature.
Format: biochemical
Description: Four different protocols can be used. In a first protocol: 7.5 μM of prephosphorylated GS1 peptide and 10 μM ATP (containing 300,000 cpm of ^33P-ATP) were incubated in 25 mM Tris-HCl, pH 7.5, 0.6 mM DTT, 6 mM MgCl2, 0.6 mM EGTA, 0.05 mg/ml BSA buffer for 1 hour at room temperature in the presence of GSK3beta (total reaction volume: 100 microliters). In a second protocol: 4.1 μM of prephosphorylated GS1 peptide and 42 μM ATP (containing 260,000 cpm ^33P-ATP) were incubated in 80 mM Mes-NaOH, pH 6.5, 1 mM Mg acetate, 0.5 mM EGTA, 5 mM 2-mercaptoethanol, 0.02% Tween 20, 10% glycerol buffer for 2 hours at room temperature in the presence of GSK3beta. In a third protocol: 7.5 μM of prephosphorylated GS1 peptide and 10 μM ATP (containing 300,000 cpm of ^33P-ATP) were incubated in 50 mM Hepes, pH 7.2, 1 mM DTT, 1 mM MgCl2, 1 mM EGTA, 0.01% Tween 20 buffer for one hour at room temperature in the presence of GSK3beta (total reaction volume: 100 microliters). In a fourth protocol: 7.5 μM of prephosphorylated GS1 peptide and 10 μM ATP (containing 300,000 cpm of ^33P-ATP) were incubated in 50 mM Hepes, pH 7.2, 1 mM DTT, 1 mM MgCl2, 1 mM EGTA, 0.01% Tween 20 buffer for 90 minutes at room temperature in the presence of commercial GSK3beta (Millipore) (total reaction volume: 100 microliters). Inhibitors were solubilized in DMSO (final solvent concentration in the reaction medium, 1%). The reaction was stopped with 100 microliters of a solution made of 25 g polyphosphoric acid (85% P2O5), 126 ml 85% H3PO4, H2O to 500 ml and then diluted to 1:100 before use. An aliquot of the reaction mixture was then transferred to Whatman P81 cation exchange filters and rinsed with the solution described above. Incorporated ^33P radioactivity was determined by liquid scintillation spectrometry. The phosphorylated GS-1 peptide had the following sequence: NH2-[…](P)EDEE-COOH. (Woodgett, J. R. (1989) Analytical Biochemistry 180, 237-241.

GSK3β, sequence (P49841 whole entry): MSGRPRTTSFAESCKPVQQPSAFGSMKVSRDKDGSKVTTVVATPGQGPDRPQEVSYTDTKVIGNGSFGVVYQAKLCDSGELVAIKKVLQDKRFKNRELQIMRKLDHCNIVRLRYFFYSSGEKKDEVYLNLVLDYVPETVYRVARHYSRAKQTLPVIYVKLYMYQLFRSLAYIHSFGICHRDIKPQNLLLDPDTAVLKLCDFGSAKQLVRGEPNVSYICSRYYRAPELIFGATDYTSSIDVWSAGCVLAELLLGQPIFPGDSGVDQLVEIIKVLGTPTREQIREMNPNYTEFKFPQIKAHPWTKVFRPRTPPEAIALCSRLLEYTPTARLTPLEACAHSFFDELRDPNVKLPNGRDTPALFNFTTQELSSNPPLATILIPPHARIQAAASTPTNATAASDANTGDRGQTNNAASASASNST

Row | Compound | IC50 [µM]
1 | COc1ccccc1NC(=O)C1CCCn2c1nc(-c1ccncn1)cc2=O (racemic) [compound No. 1 of table 1, (+/−)-4-oxo-2-pyrimidin-4-yl-6,7,8,9-tetrahydro-4H-pyrido[1,2-a]pyrimidine-9-carboxylic acid N-(2-methoxy-phenyl)-amide] | 0.027
2 | COc1cc(Cl)ccc1C(=O)NCC1CCCCn2c1nc(-c1ccncn1)cc2=O (racemic) [compound No. 2 of table 2, (+/−)-4-Chloro-2-methoxy-N-(4-oxo-2-pyrimidin-4-yl-4,6,7,8,9,10-hexahydro-pyrimido[1,2-a]azepin-10-ylmethyl)-benzamide] | 0.03
3 | COc1cc(Cl)ccc1C(=O)NCC1CCCn2c1nc(-c1ccncn1)cc2=O (racemic) [compound No. 8 of table 1, (+/−)-4-Chloro-2-methoxy-N-(4-oxo-2-pyrimidin-4-yl-6,7,8,9-tetrahydro-4H-pyrido[1,2-a]pyrimidin-9-ylmethyl)-benzamide] | 0.019
